Results published in patent US20240383923A1, “HETEROARYL DERIVATIVE AND USE THEREOF” (VORONOI INC., priority 2022, published 2024).

The molecules below were run on BT-474 cancer cells (assay: Inhibition of BT-474 cell proliferation (CellTiter-Glo)). Details: Homo sapiens, BT-474 cells, 120 hours.
Format: cell-based
Method: BT-474 cancer cells were cultured by using RPMI-1640 medium containing 20% FBS. The BT-474 cancer cells were seeded to a white clear bottom 96 well plate (Corning) at 5,000 cells per well 48 hours before the BT-474 cancer cells were treated with Example Compounds. Example Compounds were diluted in dimethylsulfoxide (3-fold diluted, total 11 concentrations) and 1 μL each was injected so that the final concentration was 0.2 nM to 10 μM. For the measurement of living cells, the cells were stored at room temperature for 10 minutes using the CellTiter-Glo cell viability reagent (Promega) after a predetermined time (120 hours) after the treatment of Example Compounds, and then the luminescence intensity was measured using a reader (SynergyNeo, Biotek). Each test was repeated three times.
The result value was calculated as a cell growth rate (%) compared to a control group. Graphs were plotted and GI50 values were calculated using the GraphPad Prism version 8.0 program, and the results are shown in Table 18 below.

SMILES | GI50 [nM]
COc1cc(Oc2ccn3ncnc3c2)c(C)cc1Nc1ncnc2cc(F)c(NC(=O)/C(F)=C\[C@H]3CCCN3C)cc12 [Example 102, (R,E)-N-(4-((4-([1,2,4]triazolo[1,5-a]pyridin-7-yloxy)-2-methoxy-5-methylphenyl)amino)-7-fluoroquinazolin-6-yl)-2-fluoro-3-(1-methylpyrrolidin-2-yl)acrylamide] | ≤ 50
COc1cc(Oc2ccn3ncnc3c2)c(C)cc1Nc1ncnc2cc(F)c(NC(=O)/C(F)=C/[C@H]3CCCN3C)cc12 [Example 103, (R,Z)—N-(4-((4-([1,2,4]triazolo[1,5-a]pyridin-7-yloxy)-2-methoxy-5-methylphenyl)amino)-7-fluoroquinazolin-6-yl)-2-fluoro-3-(1-methylpyrrolidin-2-yl)acrylamide] | ≤ 50
COc1cc2ncnc(Nc3cc(C)c(Oc4ccn5ncnc5c4)cc3OC(F)(F)F)c2cc1NC(=O)/C(F)=C\[C@H]1CCCN1C [Example 105, (R,E)-N-(4-((4-([1,2,4]triazolo[1,5-a]pyridin-7-yloxy)-5-methyl-2-(trifluoromethoxy)phenyl)amino)-7-methoxyquinazolin-6-yl)-2-fluoro-3-(1-methylpyrrolidin-2-yl)acrylamide] | > 500
COc1cc2ncnc(Nc3cc(C)c(Oc4ccn5ncnc5c4)cc3OC3CC3)c2cc1NC(=O)/C(F)=C\[C@H]1CCCN1C [Example 106, (R,E)-N-(4-((4-([1,2,4]triazolo[1,5-a]pyridin-7-yloxy)-2-cyclopropoxy-5-methylphenyl)amino)-7-methoxyquinazolin-6-yl)-2-fluoro-3-(1-methylpyrrolidin-2-yl)acrylamide] | ≤ 50
COc1cc2ncnc(Nc3cc(C)c(Oc4ccn5ncnc5c4)cc3OC3CC3)c2cc1NC(=O)/C(F)=C/[C@H]1CCCN1C [Example 107, (R,Z)—N-(4-((4-([1,2,4]triazolo[1,5-a]pyridin-7-yloxy)-2-cyclopropoxy-5-methylphenyl)amino)-7-methoxyquinazolin-6-yl)-2-fluoro-3-(1-methylpyrrolidin-2-yl)acrylamide] | ≤ 50
COc1cc2ncnc(Nc3ccc(Oc4ccn5ncnc5c4)cc3OC3COC3)c2cc1NC(=O)/C(F)=C\[C@H]1CCCN1C(=O)OC(C)(C)C [Example 109, tert-butyl (R,E)-2-(3-((4-((4-([1,2,4]triazolo[1,5-a]pyridin-7-yloxy)-2-(oxetan-3-yloxy)phenyl)amino)-7-methoxyquinazolin-6-yl)amino)-2-fluoro-3-oxoprop-1-en-1-yl)pyrrolidine-1-carboxylate] | > 500
COc1cc2ncnc(Nc3cc(C)c(Oc4ccn5ncnc5c4)cc3OC)c2cc1NC(=O)/C(F)=C/[C@@H]1CCCN1C [Example 112, (S,Z)—N-(4-((4-([1,2,4]triazolo[1,5-a]pyridin-7-yloxy)-2-methoxy-5-methylphenyl)amino)-7-methoxyquinazolin-6-yl)-2-fluoro-3-(1-methylpyrrolidin-2-yl)acrylamide] | ≤ 50
COc1cc(Oc2ccn3ncnc3c2)c(C)cc1Nc1ncnc2cc(N3CC(F)(F)C3)c(NC(=O)/C(F)=C/[C@H]3CCCN3C)cc12 [Example 114, (R,Z)—N-(4-((4-([1,2,4]triazolo[1,5-a]pyridin-7-yloxy)-2-methoxy-5-methylphenyl)amino)-7-(3,3-difluoroazetidin-1-yl)quinazolin-6-yl)-2-fluoro-3-(1-methylpyrrolidin-2-yl)acrylamide] | ≤ 50
CCOc1cc2ncnc(Nc3cc(C)c(Oc4ccn5ncnc5c4)cc3OC)c2cc1NC(=O)/C(F)=C/[C@H]1CCCN1C [Example 120, (R,Z)—N-(4-((4-([1,2,4]triazolo[1,5-a]pyridin-7-yloxy)-2-methoxy-5-methylphenyl)amino)-7-ethoxyquinazolin-6-yl)-2-fluoro-3-(1-methylpyrrolidin-2-yl)acrylamide] | ≤ 50
COc1cc2ncnc(Nc3cc(C)c(Oc4ccc(N(C)C)cc4)cc3OC)c2cc1NC(=O)/C(F)=C\[C@H]1CCCN1C [Example 123, (R,E)-N-(4-((4-(4-(dimethylamino)phenoxy)-2-methoxy-5-methylphenyl)amino)-7-methoxyquinazolin-6-yl)-2-fluoro-3-(1-methylpyrrolidin-2-yl)acrylamide] | 50 to 100
COc1cc2ncnc(Nc3cc(C)c(Oc4ccc(C(=O)N(C)C)cc4)cc3OC)c2cc1NC(=O)/C(F)=C/[C@H]1CCCN1C [Example 125, (R,Z)-4-(4-((6-(2-fluoro-3-(1-methylpyrrolidin-2-yl)acrylamido)-7-methoxyquinazolin-4-yl)amino)-5-methoxy-2-methylphenoxy)-N,N-dimethylbenzamide] | 50 to 100
COc1cc2ncnc(Nc3cc(C)c(Oc4ccc(C(=O)N(C)C)cc4)cc3OC)c2cc1NC(=O)/C(F)=C\[C@H]1CCCN1C [Example 126, (R,E)-4-(4-((6-(2-fluoro-3-(1-methylpyrrolidin-2-yl)acrylamido)-7-methoxyquinazolin-4-yl)amino)-5-methoxy-2-methylphenoxy)-N,N-dimethylbenzamide] | 100 to 500
COc1cc2ncnc(Nc3cc(N(C)C)c(Oc4ccn5ncnc5c4)cc3OC)c2cc1NC(=O)/C(F)=C\[C@H]1CCCN1C [Example 127, (R,E)-N-(4-((4-([1,2,4]triazolo[1,5-a]pyridin-7-yloxy)-5-(dimethylamino)-2-methoxyphenyl)amino)-7-methoxyquinazolin-6-yl)-2-fluoro-3-(1-methylpyrrolidin-2-yl)acrylamide] | 100 to 500

Results, then the molecule that gave them:

GI50 [nM] | SMILES
≤ 50 | COc1cc2ncnc(Nc3cc(C)c(Oc4ccn5ncnc5c4)cc3OC)c2cc1NC(=O)/C(F)=C/[C@H]1CCCCN1C [Example 131, (R,Z)—N-(4-((4-([1,2,4]triazolo[1,5-a]pyridin-7-yloxy)-2-methoxy-5-methylphenyl)amino)-7-methoxyquinazolin-6-yl)-2-fluoro-3-(1-methylpiperidin-2-yl)acrylamide]
100 to 500 | CCOc1cc2ncc(C#N)c(Nc3cc(C)c(Oc4ccn5ncnc5c4)cc3OC)c2cc1NC(=O)/C(F)=C\[C@H]1CCCN1C [Example 132, (R,E)-N-(4-((4-([1,2,4]triazolo[1,5-a]pyridin-7-yloxy)-2-methoxy-5-methylphenyl)amino)-3-cyano-7-ethoxyquinolin-6-yl)-2-fluoro-3-(1-methylpyrrolidin-2-yl)acrylamide]
≤ 50 | COc1cc2ncnc(Nc3cc(C)c(Oc4cccc(NC(C)=O)c4)cc3OC)c2cc1NC(=O)/C(F)=C/[C@H]1CCCN1C [Example 133, (R,Z)—N-(4-((4-(3-acetamidophenoxy)-2-methoxy-5-methylphenyl)amino)-7-methoxyquinazolin-6-yl)-2-fluoro-3-(1-methylpyrrolidin-2-yl)acrylamide]
≤ 50 | COc1cc2ncnc(Nc3cc(C)c(Oc4ccn5ncnc5c4)cc3OC)c2cc1NC(=O)/C(F)=C/[C@H]1CCCN1 [Example 135, (R,Z)—N-(4-((4-([1,2,4]triazolo[1,5-a]pyridin-7-yloxy)-2-methoxy-5-methylphenyl)amino)-7-methoxyquinazolin-6-yl)-2-fluoro-3-(pyrrolidin-2-yl)acrylamide]
50 to 100 | COc1cc2ncnc(Nc3cc(C4CC4)c(Oc4ccn5ncnc5c4)cc3OC)c2cc1NC(=O)/C(F)=C/[C@H]1CCCN1C [Example 137, (R,Z)—N-(4-((4-([1,2,4]triazolo[1,5-a]pyridin-7-yloxy)-5-cyclopropyl-2-methoxyphenyl)amino)-7-methoxyquinazolin-6-yl)-2-fluoro-3-(1-methylpyrrolidin-2-yl)acrylamide]
≤ 50 | COc1cc2ncnc(Nc3cc(Br)c(Oc4ccn5ncnc5c4)cc3OC)c2cc1NC(=O)/C(F)=C/[C@H]1CCCN1C [Example 139, (R,Z)—N-(4-((4-([1,2,4]triazolo[1,5-a]pyridin-7-yloxy)-5-bromo-2-methoxyphenyl)amino)-7-methoxyquinazolin-6-yl)-2-fluoro-3-(1-methylpyrrolidin-2-yl)acrylamide]
≤ 50 | COc1cc2ncnc(Nc3cc(Br)c(Oc4ccn5ncnc5c4)cc3OC)c2cc1NC(=O)/C(F)=C\[C@H]1CCCN1C [Example 140, (R,E)-N-(4-((4-([1,2,4]triazolo[1,5-a]pyridin-7-yloxy)-5-bromo-2-methoxyphenyl)amino)-7-methoxyquinazolin-6-yl)-2-fluoro-3-(1-methylpyrrolidin-2-yl)acrylamide]
≤ 50 | COc1cc(Oc2ccn3ncnc3c2)c(C)cc1Nc1ncnc2ccc(NC(=O)/C(F)=C/[C@H]3CCCN3C)c(Cl)c12 [Example 141, (R,Z)—N-(4-((4-([1,2,4]triazolo[1,5-a]pyridin-7-yloxy)-2-methoxy-5-methylphenyl)amino)-5-chloroquinazolin-6-yl)-2-fluoro-3-(1-methylpyrrolidin-2-yl)acrylamide]
> 500 | COc1cc2ncnc(Nc3cc(C)c(Oc4ccn5ncnc5c4)cc3OC)c2cc1NC(=O)/C(C#N)=C\C(C)(C)N1CCN(C2COC2)CC1 [Example 144, (Z)—N-(4-((4-([1,2,4]triazolo[1,5-a]pyridin-7-yloxy)-2-methoxy-5-methylphenyl)amino)-7-methoxyquinazolin-6-yl)-2-cyano-4-methyl-4-(4-(oxetan-3-yl)piperazin-1-yl)pent-2-enamide]
100 to 500 | C=C(C(=O)Nc1cc2c(Nc3cc(C)c(Oc4ccn5ncnc5c4)cc3OC)ncnc2cc1OC)n1cccn1 [Example 147, N-(4-((4-([1,2,4]triazolo[1,5-a]pyridin-7-yloxy)-2-methoxy-5-methylphenyl)amino)-7-methoxyquinazolin-6-yl)-2-(1H-pyrazol-1-yl)acrylamide]
